Laboratory results reported in publication doi:10.1101/2025.01.28.635346v1 (bioRxiv, 2025).
Bridge positions count the residues as written; N and C are the ends. Side chains are listed from the residue outwards. Peptide text beside a SMILES is read from it. * marks the point of attachment. Butanoyl(4-(4-I-phenyl)) = O=C(CCCc1ccc(I)cc1)*; PEG2 = NCCOCCOCCC(=O)O

Assays:
integrin αvβ1 = integrin αvβ1 (Homo sapiens, UniProt P05556+P06756); experiment: ELISA competition assay, integrin αvβ1; format: binding
integrin α8β1 = integrin α8β1 (Homo sapiens, UniProt P05556+P53708); experiment: ELISA competition assay, integrin α8β1; format: binding
[1] = Plasma protein binding, rapid equilibrium dialysis, mouse plasma; format: in vitro ADME; settings: for Plasma protein binding, %Recovery: mouse plasma, RED, 2 μM, 4 h, 37°C; for fraction unbound at 4 h, 2 μM: mouse, plasma, pH 7.4
ADRA1A = molecular target: T1, ADRA1A (Homo sapiens, UniProt P35348); experiment: Safetyscan47 GPCR Calcium Flux, Agonist; format: cell-based; settings: for Emax: read-out: Max Response
T1 sequence (P35348 1-466): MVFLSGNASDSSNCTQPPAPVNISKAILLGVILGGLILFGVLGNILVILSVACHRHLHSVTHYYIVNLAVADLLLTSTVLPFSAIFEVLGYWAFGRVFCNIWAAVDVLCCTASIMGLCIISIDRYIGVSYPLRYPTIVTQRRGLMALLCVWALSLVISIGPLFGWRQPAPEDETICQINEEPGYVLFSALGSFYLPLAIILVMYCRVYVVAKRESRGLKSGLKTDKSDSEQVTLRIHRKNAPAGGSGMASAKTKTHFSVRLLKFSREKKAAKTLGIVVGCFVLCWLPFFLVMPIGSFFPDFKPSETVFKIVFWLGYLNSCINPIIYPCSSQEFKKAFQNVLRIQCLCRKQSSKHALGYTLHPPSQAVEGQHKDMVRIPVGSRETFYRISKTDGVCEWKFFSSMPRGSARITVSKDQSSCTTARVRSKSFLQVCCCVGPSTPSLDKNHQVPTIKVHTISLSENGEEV

CHRM3 = CHRM3 (Homo sapiens, UniProt P20309); experiment: Safetyscan47 GPCR Calcium Flux, Agonist; format: cell-based; settings: for Emax: read-out: Max Response
Sequence of CHRM3 (P20309 whole entry): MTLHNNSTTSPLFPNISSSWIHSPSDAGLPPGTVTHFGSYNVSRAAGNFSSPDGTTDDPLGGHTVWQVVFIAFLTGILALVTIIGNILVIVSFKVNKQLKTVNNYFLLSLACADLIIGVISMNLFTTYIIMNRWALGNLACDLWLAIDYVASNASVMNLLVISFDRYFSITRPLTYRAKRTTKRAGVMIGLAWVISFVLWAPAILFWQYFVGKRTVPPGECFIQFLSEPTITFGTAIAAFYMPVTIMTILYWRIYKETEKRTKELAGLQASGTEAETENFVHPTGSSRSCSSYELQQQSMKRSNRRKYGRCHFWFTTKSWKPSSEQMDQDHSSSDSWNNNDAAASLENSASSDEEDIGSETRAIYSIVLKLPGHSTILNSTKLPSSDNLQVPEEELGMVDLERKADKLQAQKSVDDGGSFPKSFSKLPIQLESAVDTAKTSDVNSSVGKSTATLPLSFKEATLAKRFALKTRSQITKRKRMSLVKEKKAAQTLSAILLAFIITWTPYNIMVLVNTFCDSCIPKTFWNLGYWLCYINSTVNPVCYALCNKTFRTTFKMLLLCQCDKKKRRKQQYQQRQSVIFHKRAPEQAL

EDNRA = molecular target: T2, EDNRA (Homo sapiens, UniProt P25101); experiment: Safetyscan47 GPCR Calcium Flux, Agonist; format: cell-based; settings: for Emax: read-out: Max Response
T2 sequence (P25101 21-427): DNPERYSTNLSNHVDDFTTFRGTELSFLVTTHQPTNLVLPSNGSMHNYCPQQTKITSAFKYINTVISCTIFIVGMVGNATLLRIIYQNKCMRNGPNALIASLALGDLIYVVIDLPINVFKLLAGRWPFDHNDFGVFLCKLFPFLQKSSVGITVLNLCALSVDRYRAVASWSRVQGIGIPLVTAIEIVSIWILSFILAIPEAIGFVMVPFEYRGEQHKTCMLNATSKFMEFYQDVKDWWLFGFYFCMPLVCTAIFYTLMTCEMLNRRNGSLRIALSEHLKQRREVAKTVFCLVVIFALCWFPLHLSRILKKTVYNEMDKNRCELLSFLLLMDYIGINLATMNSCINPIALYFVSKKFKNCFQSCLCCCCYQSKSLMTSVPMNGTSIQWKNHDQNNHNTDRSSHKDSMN

HTR1A [2] = molecular target: T3, HTR1A (Homo sapiens, UniProt P08908); experiment: Safetyscan47 GPCR cAMP, Agonist; format: cell-based; settings: for Emax: read-out: Max Response
T3 sequence (P08908 1-422): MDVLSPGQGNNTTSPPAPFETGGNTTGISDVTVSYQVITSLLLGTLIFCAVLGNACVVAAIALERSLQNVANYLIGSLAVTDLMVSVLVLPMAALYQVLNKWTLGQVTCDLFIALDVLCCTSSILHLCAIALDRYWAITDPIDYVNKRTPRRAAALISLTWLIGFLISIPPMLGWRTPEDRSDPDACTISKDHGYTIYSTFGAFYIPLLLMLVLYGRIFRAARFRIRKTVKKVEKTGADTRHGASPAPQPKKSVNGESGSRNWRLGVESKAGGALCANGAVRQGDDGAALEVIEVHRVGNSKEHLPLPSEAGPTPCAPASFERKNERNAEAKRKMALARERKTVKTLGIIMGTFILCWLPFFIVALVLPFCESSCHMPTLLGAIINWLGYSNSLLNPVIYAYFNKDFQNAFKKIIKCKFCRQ

CHRM2 = molecular target: T4, CHRM2 (Homo sapiens, UniProt P08172); experiment: Safetyscan47 GPCR cAMP, Antagonist; format: cell-based; settings: for Emax: read-out: Max Response
T4 sequence (P08172 1-466): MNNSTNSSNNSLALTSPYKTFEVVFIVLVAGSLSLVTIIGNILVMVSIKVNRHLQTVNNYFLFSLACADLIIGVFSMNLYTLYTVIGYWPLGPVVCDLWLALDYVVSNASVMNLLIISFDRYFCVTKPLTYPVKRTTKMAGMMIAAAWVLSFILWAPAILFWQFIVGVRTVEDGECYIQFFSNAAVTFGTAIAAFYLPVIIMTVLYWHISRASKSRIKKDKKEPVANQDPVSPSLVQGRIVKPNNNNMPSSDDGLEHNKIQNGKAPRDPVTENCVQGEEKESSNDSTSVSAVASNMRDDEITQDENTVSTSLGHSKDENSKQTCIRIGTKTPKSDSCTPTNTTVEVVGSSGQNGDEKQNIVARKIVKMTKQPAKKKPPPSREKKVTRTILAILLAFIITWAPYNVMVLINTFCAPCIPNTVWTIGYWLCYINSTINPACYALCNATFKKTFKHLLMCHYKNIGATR

HTR1A [3] = molecular target: T3, HTR1A; experiment: Safetyscan47 GPCR cAMP, Antagonist; format: cell-based; settings: for Emax: read-out: Max Response
HTR1B = HTR1B (Homo sapiens, UniProt P28222); experiment: Safetyscan47 GPCR cAMP, Antagonist; format: cell-based; settings: for Emax: read-out: Max Response
Sequence of HTR1B (P28222 whole entry): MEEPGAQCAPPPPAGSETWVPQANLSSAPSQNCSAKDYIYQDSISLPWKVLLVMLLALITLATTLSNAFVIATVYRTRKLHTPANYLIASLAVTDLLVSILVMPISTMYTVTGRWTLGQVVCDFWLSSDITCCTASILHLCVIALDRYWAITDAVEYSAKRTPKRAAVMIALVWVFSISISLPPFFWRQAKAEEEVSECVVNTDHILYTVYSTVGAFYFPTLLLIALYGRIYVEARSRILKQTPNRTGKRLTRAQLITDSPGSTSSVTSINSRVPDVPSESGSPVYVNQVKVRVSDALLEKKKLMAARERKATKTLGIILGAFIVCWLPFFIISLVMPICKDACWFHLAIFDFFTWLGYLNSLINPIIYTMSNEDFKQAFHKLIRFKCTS

OPRK1 = OPRK1 (Homo sapiens, UniProt P41145); experiment: Safetyscan47 GPCR cAMP, Antagonist; format: cell-based; settings: for Emax: read-out: Max Response
Sequence of OPRK1 (P41145 whole entry): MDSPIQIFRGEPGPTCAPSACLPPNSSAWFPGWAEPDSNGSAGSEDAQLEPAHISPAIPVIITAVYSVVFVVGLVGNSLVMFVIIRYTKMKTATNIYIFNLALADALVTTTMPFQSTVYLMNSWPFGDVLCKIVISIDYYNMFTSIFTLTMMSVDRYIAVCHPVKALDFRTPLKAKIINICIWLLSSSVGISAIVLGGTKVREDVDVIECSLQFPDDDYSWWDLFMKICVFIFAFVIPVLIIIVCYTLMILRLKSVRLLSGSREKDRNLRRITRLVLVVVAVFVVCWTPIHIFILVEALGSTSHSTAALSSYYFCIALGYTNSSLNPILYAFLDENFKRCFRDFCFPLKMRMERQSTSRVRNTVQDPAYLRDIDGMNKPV

LCK = LCK (Homo sapiens, UniProt P06239); experiment: Safetyscan47 Kinases Binding, Inhibitor; settings: for Emax: read-out: Max Response
Sequence of LCK (P06239 whole entry): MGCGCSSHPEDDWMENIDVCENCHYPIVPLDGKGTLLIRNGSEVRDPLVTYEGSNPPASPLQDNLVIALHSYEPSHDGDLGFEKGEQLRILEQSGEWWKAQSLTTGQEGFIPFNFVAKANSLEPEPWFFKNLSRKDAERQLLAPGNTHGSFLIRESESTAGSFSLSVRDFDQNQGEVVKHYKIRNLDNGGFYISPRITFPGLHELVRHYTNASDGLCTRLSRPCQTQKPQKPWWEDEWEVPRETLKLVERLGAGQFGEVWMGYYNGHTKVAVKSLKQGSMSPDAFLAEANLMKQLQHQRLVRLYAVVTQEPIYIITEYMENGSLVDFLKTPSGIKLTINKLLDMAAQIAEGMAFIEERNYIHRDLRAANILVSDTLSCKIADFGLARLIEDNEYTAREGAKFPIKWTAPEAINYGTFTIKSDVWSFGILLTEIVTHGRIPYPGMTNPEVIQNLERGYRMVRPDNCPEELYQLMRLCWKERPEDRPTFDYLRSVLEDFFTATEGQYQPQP

PDE3A = PDE3A (Homo sapiens, UniProt Q14432); experiment: Safetyscan47 Non-Kinase Enzymes Enzymatic, Inhibitor; format: biochemical; settings: for Emax: read-out: Max Response
Sequence of PDE3A (Q14432 whole entry): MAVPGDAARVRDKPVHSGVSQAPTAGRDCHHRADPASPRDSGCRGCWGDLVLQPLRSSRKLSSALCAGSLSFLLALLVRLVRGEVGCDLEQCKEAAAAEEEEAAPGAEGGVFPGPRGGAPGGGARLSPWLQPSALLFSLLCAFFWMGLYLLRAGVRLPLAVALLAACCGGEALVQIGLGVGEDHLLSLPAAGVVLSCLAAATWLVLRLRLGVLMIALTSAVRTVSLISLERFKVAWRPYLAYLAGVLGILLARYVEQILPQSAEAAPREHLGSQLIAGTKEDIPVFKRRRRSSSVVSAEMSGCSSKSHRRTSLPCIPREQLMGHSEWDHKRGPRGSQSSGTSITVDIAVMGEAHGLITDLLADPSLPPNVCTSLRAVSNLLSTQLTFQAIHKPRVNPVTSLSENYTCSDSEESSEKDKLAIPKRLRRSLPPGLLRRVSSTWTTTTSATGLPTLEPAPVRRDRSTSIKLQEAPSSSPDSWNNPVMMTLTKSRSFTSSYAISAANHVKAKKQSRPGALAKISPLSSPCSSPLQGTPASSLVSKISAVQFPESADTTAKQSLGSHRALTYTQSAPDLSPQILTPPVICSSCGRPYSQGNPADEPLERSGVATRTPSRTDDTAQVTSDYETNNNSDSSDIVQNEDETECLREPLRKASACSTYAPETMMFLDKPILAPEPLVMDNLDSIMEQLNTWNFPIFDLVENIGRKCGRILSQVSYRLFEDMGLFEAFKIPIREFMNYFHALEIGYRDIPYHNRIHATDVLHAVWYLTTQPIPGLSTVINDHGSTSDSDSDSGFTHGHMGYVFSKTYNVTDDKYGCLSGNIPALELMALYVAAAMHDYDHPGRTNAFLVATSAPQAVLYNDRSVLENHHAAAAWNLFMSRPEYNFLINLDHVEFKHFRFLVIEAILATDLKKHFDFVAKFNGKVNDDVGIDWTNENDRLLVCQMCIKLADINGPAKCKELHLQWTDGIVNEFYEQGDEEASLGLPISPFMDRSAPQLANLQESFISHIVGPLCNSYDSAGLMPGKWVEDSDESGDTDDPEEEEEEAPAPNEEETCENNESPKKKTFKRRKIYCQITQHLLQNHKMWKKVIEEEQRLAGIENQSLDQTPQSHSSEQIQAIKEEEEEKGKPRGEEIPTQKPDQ

NET = NET (Homo sapiens, UniProt P23975); experiment: Safetyscan47 Transporter, Blocker; format: cell-based; settings: for Emax: read-out: Max Response
Sequence of NET (P23975 whole entry): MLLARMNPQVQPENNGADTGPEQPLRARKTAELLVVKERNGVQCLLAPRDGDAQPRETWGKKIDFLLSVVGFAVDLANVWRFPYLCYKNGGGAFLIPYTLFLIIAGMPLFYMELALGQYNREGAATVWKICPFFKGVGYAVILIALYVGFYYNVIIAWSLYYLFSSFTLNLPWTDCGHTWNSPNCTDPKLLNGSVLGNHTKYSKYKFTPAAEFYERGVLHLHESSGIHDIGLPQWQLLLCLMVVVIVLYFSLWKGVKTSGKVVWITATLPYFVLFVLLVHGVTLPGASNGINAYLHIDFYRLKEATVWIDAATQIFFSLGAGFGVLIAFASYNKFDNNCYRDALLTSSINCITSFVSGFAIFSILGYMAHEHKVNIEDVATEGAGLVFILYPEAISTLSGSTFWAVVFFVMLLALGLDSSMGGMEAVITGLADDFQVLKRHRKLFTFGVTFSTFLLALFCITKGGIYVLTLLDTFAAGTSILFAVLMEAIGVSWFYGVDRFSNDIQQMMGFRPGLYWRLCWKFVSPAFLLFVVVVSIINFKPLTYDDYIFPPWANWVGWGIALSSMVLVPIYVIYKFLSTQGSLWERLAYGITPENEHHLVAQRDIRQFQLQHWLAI

SMILES	IC50 (integrin αvβ1) [µM]	IC50 (integrin α8β1) [µM]	Plasma protein binding, %Recovery [1] [%]	fraction unbound at 4 h, 2 μM [1]	EC50 (ADRA1A) [µM]	Emax (ADRA1A) [%]	EC50 (CHRM3) [µM]	Emax (CHRM3) [%]	EC50 (EDNRA) [µM]	Emax (EDNRA) [%]	EC50 (HTR1A [2]) [µM]	Emax (HTR1A [2]) [%]	IC50 (CHRM2) [µM]	Emax (CHRM2) [%]	IC50 (HTR1A [3]) [µM]	Emax (HTR1A [3]) [%]	IC50 (HTR1B) [µM]	Emax (HTR1B) [%]	IC50 (OPRK1) [µM]	Emax (OPRK1) [%]	also measured
CC[C@H](C)[C@H](NC(=O)[C@H](CC(C)C)NC(=O)[C@H](CC(=O)O)NC(=O)CNC(=O)[C@H](CCCNC(=N)N)NC(=O)[C@@H](NC(=O)[C@H](Cc1ccccc1)NC(=O)[C@H](Cc1ccc(O)cc1)NC(=O)[C@@H]1CCC(=O)NCC(=O)NCC(=O)N[C@@H](CCCNC(=N)N)C(=O)NCC(=O)N[C@@H](Cc2c[nH]cn2)C(=O)N[C@@H](C(C)C)C(=O)N2CCC[C@H]2C(=O)N1)C(C)C)C(=O)N[C@@H](CO)C(=O)N[C@@H](Cc1ccccc1)C(=O)N[C@@H](Cc1ccc(O)cc1)C(=O)N[C@@H](CCCCN)C(=O)O [lassotide 36] (GGRGHVPEYFVRGDLISFYK-OH; lactam N-8)	0.084	3.89	91	0.222	> 45	2.01	> 45	2.89	> 45	1.75	> 45	0	> 45	0	> 45	0	> 45	0	> 45	0	IC50 (LCK): > 45 µM; Emax (LCK): 0%; IC50 (PDE3A): > 45 µM; Emax (PDE3A): 0%; IC50 (NET): > 45 µM; Emax (NET): 0.35%
CC[C@H](C)[C@H](NC(=O)[C@H](CC(C)C)NC(=O)[C@H](CC(=O)O)NC(=O)CNC(=O)[C@H](CCCNC(=N)N)NC(=O)[C@@H](NC(=O)[C@H](Cc1ccccc1)NC(=O)[C@H](Cc1ccc(O)cc1)NC(=O)[C@@H]1CCC(=O)NCC(=O)NCC(=O)N[C@@H](CCCNC(=N)N)C(=O)NCC(=O)N[C@@H](Cc2c[nH]cn2)C(=O)N[C@@H](C(C)C)C(=O)N2CCC[C@H]2C(=O)N1)C(C)C)C(=O)N[C@@H](CO)C(=O)N[C@@H](Cc1ccccc1)C(=O)N[C@@H](Cc1ccc(O)cc1)C(=O)N[C@@H](CCCCNC(=O)CCOCCOCCNC(=O)CCCc1ccc(I)cc1)C(=O)O [lassotide 47] (GGRGHVPEYFVRGDLISFYK([PEG2-Butanoyl(4-(4-I-phenyl))])-OH; lactam N-8)	1.23	> 10	100	0.005	> 45	0.52	> 45	1.93	> 45	2.94	> 45	30.1	> 45	0	> 45	0	> 45	0	> 45	0	IC50 (LCK): > 45 µM; Emax (LCK): 0%; IC50 (PDE3A): > 45 µM; Emax (PDE3A): 0.63%; IC50 (NET): > 45 µM; Emax (NET): 0%
